{"source": "patent US12186332B2", "about": "“Methods for overcoming WNT/beta-catenin anti-cancer resistance in leukemia stem cells” (STOWERS INSTITUTE FOR MEDICAL RESEARCH, priority 2019, dated 2025)", "key": {"[1]": {"test_system": "immune checkpoint (IC) and Wnt target gene loci", "assay": "ATAC-seq chromatin accessibility in LSCs and blast cells", "type": "in vivo, mouse", "settings": "[Low]DXR", "description": "Inhibitory IC gene loci are highlighted (blue dots).\nCells were sorted from BM pooled from 20 leukemia mice treated with [Low]DXR and 8 leukemia mice treated with vehicle control at 15-30 k/replicate.\nFIG. 4M is metagene analysis of LSCs showing chromatin accessibility near the transcriptional start site (TSS) in immune-checkpoint gene loci (listed) compared with all loci showing significant changes. Gene synonyms are listed here in parentheses Hvem (Tnfrsf14), Gal-9 (Lgals9), Ox401 (Tnfsf4), Tnfsf7 (Cd70), B7-H2 (Icosl), B7-H3 (Cd276), B7-H4 (Vtcn1), Pd1 (Pdcd1), Tnfrsf7 (Cd27), Tim3 (Havcr2), Ox40 (Tnfrsf4).\nCells were sorted from BM pooled from 20 leukemia mice treated with [Low]DXR and 8 leukemia mice treated with vehicle control. Experiment was repeated 1 time with similar results.\nATAC-seq was performed in LSCs and blast cells following the protocol described in Buenrostro et al., ATAC-seq: A Method for Assaying Chromatin Accessibility Genome-Wide. Curr Protoc Mol Biol. 2015 Jan. 5,109:21.29.1-9, the entirety of which is incorporated herein by reference. Cells were sorted from BM pooled from 20 leukemia mice treated with [Low]DXR and 8 leukemia mice treated with vehicle control at 15-30 k/replicate.\nCollected cells were subject to transposition reaction and purification. In brief, 30,000 FACS-sorted blast cells were washed using 50 μl cold 1×PBS and centrifuged at 500 g for 5 min in a pre-chilled (4° C.) fixed-angle centrifuge. Cells were lysed using cold lysis buffer (10 mM Tris-HCl, pH 7.4, 10 mM NaCl, 3 mM MgCl2 and 0.1% IGEPAL CA-630). Following the lysis, the pellet was resuspended in the transposase reaction mix. The transposition reaction mix contains 25 μl TD (2× reaction buffer), 2.5 μl TDE1 (Nextera Tn5 Transposase) and 22.5 μl Nuclease Free H2O. Resuspended nuclei in the transposition reaction mix. Incubated the transposition reaction at 37° C. for 30 min. Immediately following transposition, purification was performed by using a Qiagen MinElute PCR Purification Kit. Eluted transposed DNA in 10 μl Elution Buffer (10 mM Tris buffer, pH 8). Transposed DNA fragments were amplified by PCR. The PCR mixture contains 10 μl transposed DNA, 10 μl Nuclease Free H2O, 2.5 μl 25 μM Custom Nextera PCR Primer 1, 2.5 μl 25 μM Custom Nextera PCR Primer 2 (Contains Barcode) and 25 μl NEBNext High-Fidelity 2×PCR Master Mix. The thermal cycle is as follows: 1 cycle of 72° C. for 5 min, 98° C. for 30 sec, 5 cycles of 98° C. for 10 sec, 63° C. for 30 sec, 72° C. for 1 min. To reduce GC and size bias in PCR, the appropriate number of PCR cycles is determined using qPCR. To run a qPCR side reaction, combine the following in qPCR compatible consumables: 5 μl of previously PCR amplified DNA, 4.41 μl Nuclease Free H2O, 0.25 μl 25 μM Customized Nextera PCR Primer 1, 0.25 μl 25 μM Customized Nextera PCR Primer 2, 0.09 μl 100×SYBR Green I, 5 μl NEBNext High-Fidelity 2×PCR Master Mix. Using a qPCR instrument, cycle as follows: 1 cycle of 98° C. for 30 sec, 20 cycles of 98° C. for 10 sec, 63° C. for 30 sec, 72° C. for 1 min. To calculate the additional number of cycles needed, plot linear Rn versus cycle and determine the cycle number that corresponds to […] fluorescent intensity. Run the remaining 45 μl PCR reaction to the cycle number determined by qPCR. Cycle as follows: 1 cycle of 98° C. for 30 sec, N cycles (determined using qPCR) of 98° C. for 10 sec, 63° C. for 30 sec, 72° C. for 1 min."}, "CD8^+ T cells": {"test_system": "CD8^+ T cells", "assay": "FACS of peripheral blood CD8+ T cells in leukemic mice", "type": "in vivo, mouse", "settings": "48 hrs post-treatment"}, "[2]": {"test_system": "LSCs and HSPCs transcriptome", "assay": "RNA-seq of populations sorted from treated leukemic mice", "type": "in vivo, mouse", "procedure": "HSPCs, LSCs, and blast cells were sorted by FACS at […] post-treatment of leukemic mice; representative sorting gates are shown. Note distinct LSC population (compare to isotype) in vehicle versus low-dose DXR+chemotherapy treatment when LSCs show very low frequency. Other plots are from vehicle control. To obtain sufficient cells from the clinical DXR sample, the 5×4 […] DXR daily dosing schedule was used.\nData from two biological replicates of each, differing by <0.3 standard deviations, are shown.\nCohorts of leukemic mice were treated with vehicle, chemotherapy, [Low]DXR, clinical-dose DXR or chemotherapy+[Low]DXR as in FIG. 8. At 10 days post-treatment (day 1=start of treatment), blast cells, LSCs, and HSPCs were sorted using stringent gates (see FIG. 4A) for these populations. For each population, two biological replicates were made with 1-3 technical replicates each. Each biological replicate was a pool of sorted cells from 4-5 male and 4-5 female mice. Technical replicates were samples of sorted cells from each biological replicate. 1,000 cells per sample were sorted into 96-well plates with 7 μl lysis buffer containing RNase inhibitor (2 U/μl) from BM. First-strand cDNA synthesis and cDNA libraries were constructed using the SMARTer ultra low input RNA kit for sequencing—v3 (Clontech) following the manufacturer's instructions. cDNA quality was determined by Agilent high sensitivity DNA kit on Agilent 2100 BioAnalyzer (Agilent Technologies). Libraries were sequenced at 50 bp on the Illumina HiSeq 2500. Reads were aligned to UCSC mm10 with Tophat 2.1.1 (Kim et al. 2013), using gene models from Ensembl 80. Read counts per gene were obtained with HTSeq-count 0.6.0 (Anders et al. 2015). Analysis was done in R with the EdgeR package (Robinson et al. 2010) using default methods. […] Data can be accessed at https://www.ncbi.nlm.nih.qov/geo/query/acc.cqi?acc=GSE105049."}, "pS^552-β-catenin": {"test_system": "pS^552-β-catenin", "assay": "Western analysis of compound-treated TOP and FOP cells", "type": "cell-based", "procedure": "TOP and FOP cells were treated with thioguanosine at EC90, EC50 and EC25 derived from FIG. 2A for 48 hours, washed and flash frozen for Western analysis. EC50 data is shown.\nTOP and FOP cells were treated with compound 0105375 at EC90, EC50 and EC25 derived from FIG. 2B for 48 hours, washed and flash frozen for Western analysis. EC50 data is shown.\nTOP and FOP cells were treated with doxorubicin at EC90, EC50 and EC25 derived from FIG. 2C for 48 hours, washed and flash frozen for Western analysis. EC50 data is shown."}, "[3]": {"settings": "particularly low concentrations, 48 hours"}}}
{"smiles": "COc1cccc2c1C(=O)c1c(O)c3c(c(O)c1C2=O)C[C@@](O)(C(=O)CO)C[C@@H]3O[C@H]1C[C@H](N)[C@H](O)[C@H](C)O1", "note": "[DXR, doxorubicin]", "values": [{"measurement": "IC loci with increased accessibility", "setting": "[1]; LSCs", "value": 3, "unit": "loci"}, {"measurement": "IC loci with reduced accessibility", "setting": "[1]; LSCs", "value": 13, "unit": "loci"}, {"measurement": "IC loci with increased accessibility", "setting": "[1]; blast cells", "value": 10}, {"measurement": "IC loci with reduced accessibility", "setting": "[1]; blast cells", "value": 4}, {"measurement": "accessibility in the promoter regions of Wnt target genes in LSCs", "setting": "[1]; not in blast cells", "value": "reduced"}, {"measurement": "CD8+ T cells in peripheral blood", "setting": "CD8^+ T cells; [Low]DXR", "value": "significant increase"}, {"measurement": "CD8+ T cells in peripheral blood", "setting": "CD8^+ T cells; clinical-dose DXR", "value": "significant reduction"}, {"measurement": "Hallmark MYC targets in LSCs", "setting": "[2]; [Low]DXR", "value": "reduced"}, {"measurement": "most highly enriched terms in LSCs compared to control or chemotherapy", "setting": "[2]; [Low]DXR", "value": "upregulation of immune-related terms"}, {"measurement": "expression of resistance pathways, LSCs versus HSPCs", "setting": "[2]; clinical DXR", "value": "increased expression of oncogenic signaling and other resistance pathways"}, {"measurement": "inhibition of pS552-β-catenin relative to pan β-catenin (HTS candidates)", "setting": "pS^552-β-catenin", "value": "could inhibit pS^552-β-catenin with less effect on pan β-catenin"}, {"measurement": "effect on β-catenin generally", "setting": "pS^552-β-catenin; [3]", "value": "only minimal effect"}, {"measurement": "pS552-β-catenin level", "setting": "pS^552-β-catenin; [3]", "value": "inhibited"}]}
